Columns and labels:
[1] = test system: A431cells (human epidermoid carcinoma); test: In vitro tumor cell proliferation assay (Cell Titer-Glo luminescent cell viability), A431 cells; type: cell-based; settings: A-431, 72 h, 72 hours drug exposure, 10% Fetal Bovine Serum, ATP luminescence readout, read-out: IC50 (50% inhibition of cell proliferation)
Procedure, shortened: (§1)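 ATP luminescence (CellTiter-Glo) measured proliferation after 72 h compound exposure at 37 °C, giving IC50 values. Serial dilutions spanning 64 pM–100 μM in 0.1% DMSO were applied one day after plating 2.5×10^3 cells/well in RPMI plus 10% fetal bovine serum.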

[2] = test system: BT474 (human breast carcinoma); test: In vitro tumor cell proliferation assay (Cell Titer-Glo luminescent cell viability), BT474 cells; type: cell-based; settings: BT-474, 72 hours drug exposure, 10% Fetal Bovine Serum, ATP luminescence readout, read-out: IC50 (50% inhibition of cell proliferation)
Procedure, shortened: as §1

Structure (SMILES) | IC50 [1] [µM] | IC50 [2] [µM]
CN(C)CCC1CCc2c(sc3ncnc(Nc4ccc(OCc5ccccn5)c(Cl)c4)c23)C1 (stereo not drawn) [Example 185, N-[3-chloro-4-(pyridin-2-ylmethoxy)phenyl]-7-[2-(dimethylamino)ethyl]-5,6,7,8-tetrahydro[1]benzothieno[2,3-d]pyrimidin-4-amine] | < 5 | < 5
O[C@H]1CCN(CCC2CCc3c(sc4ncnc(Nc5ccc(OCc6cccc(F)c6)c(Cl)c5)c34)C2)C1 (stereo partly drawn) [Example 186, (3S)-1-{2-[4-({3-chloro-4-[(3-fluorobenzyl)oxy]phenyl}amino)-5,6,7,8-tetrahydro[1]benzothieno[2,3-d]pyrimidin-7-yl]ethyl}pyrrolidin-3-ol] | < 5 | < 5
COCCN1CCN(CCC2CCc3c(sc4ncnc(Nc5ccc(OCc6ccccn6)c(Cl)c5)c34)C2)CC1 (stereo not drawn) [Example 188, N-[3-chloro-4-(pyridin-2-ylmethoxy)phenyl]-7-{2-[4-(2-methoxyethyl)piperazin-1-yl]ethyl}-5,6,7,8-tetrahydro[1]benzothieno[2,3-d]pyrimidin-4-amine] | < 50 | < 5
COCCN(C)CCC1CCc2c(sc3ncnc(Nc4ccc(OCc5ccccn5)c(Cl)c4)c23)C1 (stereo not drawn) [Example 189, N-[3-chloro-4-(pyridin-2-ylmethoxy)phenyl]-7-{2-[(2-methoxyethyl)(methyl)amino]ethyl}-5,6,7,8-tetrahydro[1]benzothieno[2,3-d]pyrimidin-4-amine] | < 5 | < 5
Clc1cc(Nc2ncnc3sc4c(c23)CCC(CCN2CCCC2)C4)ccc1OCc1ccccn1 (stereo not drawn) [Example 190, N-[3-chloro-4-(pyridin-2-ylmethoxy)phenyl]-7-(2-pyrrolidin-1-ylethyl)-5,6,7,8-tetrahydro[1]benzothieno[2,3-d]pyrimidin-4-amine] | < 5 | < 5
Clc1cc(Nc2ncnc3sc4c(c23)CCC(CCN2CCCCC2)C4)ccc1OCc1ccccn1 (stereo not drawn) [Example 191, N-[3-chloro-4-(pyridin-2-ylmethoxy)phenyl]-7-(2-piperidin-1-ylethyl)-5,6,7,8-tetrahydro[1]benzothieno[2,3-d]pyrimidin-4-amine] | < 5 | < 5
Clc1cc(Nc2ncnc3sc4c(c23)CCC(CCNCCN2CCOCC2)C4)ccc1OCc1ccccn1 (stereo not drawn) [Example 192, N-[3-chloro-4-(pyridin-2-ylmethoxy)phenyl]-7-{2-[(2-morpholin-4-ylethyl)amino]ethyl}-5,6,7,8-tetrahydro[1]benzothieno[2,3-d]pyrimidin-4-amine] | < 5 | < 5
CCNCCC1CCc2c(sc3ncnc(Nc4ccc(OCc5ccccn5)c(Cl)c4)c23)C1 (stereo not drawn) [Example 193, N-[3-chloro-4-(pyridin-2-ylmethoxy)phenyl]-7-[2-(ethylamino)ethyl]-5,6,7,8-tetrahydro[1]benzothieno[2,3-d]pyrimidin-4-amine] | < 5 | < 5
CCN(CC)CCC1CCc2c(sc3ncnc(Nc4ccc(OCc5ccccn5)c(Cl)c4)c23)C1 (stereo not drawn) [Example 194, N-[3-chloro-4-(pyridin-2-ylmethoxy)phenyl]-7-[2-(diethylamino)ethyl]-5,6,7,8-tetrahydro[1]benzothieno[2,3-d]pyrimidin-4-amine] | < 5 | < 5
COCCCNCCC1CCc2c(sc3ncnc(Nc4ccc(OCc5ccccn5)c(Cl)c4)c23)C1 (stereo not drawn) [Example 195, N-[3-chloro-4-(pyridin-2-ylmethoxy)phenyl]-7-{2-[(3-methoxypropyl)amino]ethyl}-5,6,7,8-tetrahydro[1]benzothieno[2,3-d]pyrimidin-4-amine] | < 5 | < 5
Clc1cc(Nc2ncnc3sc4c(c23)CCC(CCN2CCN(Cc3ccncc3)CC2)C4)ccc1OCc1ccccn1 (stereo not drawn) [Example 196, N-[3-chloro-4-(pyridin-2-ylmethoxy)phenyl]-7-{2-[4-(pyridin-4-ylmethyl)piperazin-1-yl]ethyl}-5,6,7,8-tetrahydro[1]benzothieno[2,3-d]pyrimidin-4-amine] | < 5 | < 5
O[C@@H]1CCN(CCC2CCc3c(sc4ncnc(Nc5ccc(OCc6cccc(F)c6)c(Cl)c5)c34)C2)C1 (stereo partly drawn) [Example 197, (3R)-1-{2-[4-({3-chloro-4-[(3-fluorobenzyl)oxy]phenyl}amino)-5,6,7,8-tetrahydro[1]benzothieno[2,3-d]pyrimidin-7-yl]ethyl}pyrrolidin-3-ol] | < 5 | < 5
COC[C@H]1CCCN1CCC1CCc2c(sc3ncnc(Nc4ccc(OCc5cccc(F)c5)c(Cl)c4)c23)C1 (stereo partly drawn) [Example 198, N-{3-chloro-4-[(3-fluorobenzyl)oxy]phenyl}-7-{2-[(2R)-2-(methoxymethyl)pyrrolidin-1-yl]ethyl}-5,6,7,8-tetrahydro[1]benzothieno[2,3-d]pyrimidin-4-amine] | < 5 | < 5
Fc1cccc(COc2ccc(Nc3ncnc4sc5c(c34)CCC(CCN3CCSCC3)C5)cc2Cl)c1 (stereo not drawn) [Example 199, N-{3-chloro-4-[(3-fluorobenzyl)oxy]phenyl}-7-(2-thiomorpholin-4-ylethyl)-5,6,7,8-tetrahydro[1]benzothieno[2,3-d]pyrimidin-4-amine] | < 50 | < 5
C=CC1(O)CCc2c(sc3ncnc(Nc4ccc(F)c(Cl)c4)c23)C1 (stereo not drawn) [Example 201, 4-[(3-chloro-4-fluorophenyl)amino]-7-vinyl-5,6,7,8-tetrahydro[1]benzothieno[2,3-d]pyrimidin-7-ol] | < 50 | < 50

Continued, values first:

IC50 [1] [µM] | IC50 [2] [µM] | Structure (SMILES)
< 50 | < 5 | CNCCC1CCc2c(sc3ncnc(Nc4ccc(OCc5ccccn5)c(Cl)c4)c23)C1 (stereo not drawn) [Example 187, N-[3-chloro-4-(pyridin-2-ylmethoxy)phenyl]-7-[2-(methylamino)ethyl]-5,6,7,8-tetrahydro[1]benzothieno[2,3-d]pyrimidin-4-amine]
< 5 | < 5 | CS(=O)(=O)CCNCCC1CCc2c(sc3ncnc(Nc4ccc(OCc5cccc(F)c5)c(Cl)c4)c23)C1 (stereo not drawn) [Example 200, N-{3-chloro-4-[(3-fluorobenzyl)oxy]phenyl}-7-(2-{[2-(methylsulfonyl)ethyl]amino}ethyl)-5,6,7,8-tetrahydro[1]benzothieno[2,3-d]pyrimidin-4-amine]
< 5 | < 5 | CS(=O)(=O)OCCC1CCc2c(sc3ncnc(Nc4ccc5c(cnn5Cc5ccccc5)c4)c23)C1 (stereo not drawn) [Example 202, 2-{4-[(1-benzyl-1H-indazol-5-yl)amino]-5,6,7,8-tetrahydro[1]benzothieno[2,3-d]pyrimidin-7-yl}ethyl methanesulfonate]
< 5 | < 5 | OCCC1CCc2c(sc3ncnc(Nc4ccc5c(cnn5Cc5ccccc5)c4)c23)C1 (stereo not drawn) [Example 203, 2-[4-(1-Benzyl-1H-indazol-5-ylamino)-5,6,7,8-tetrahydro-benzo[4,5]thieno[2,3-d]pyrimidin-7-yl]-ethanol]
< 50 | < 5 | CCOC(=O)CC1CCc2c(sc3ncnc(Nc4ccc5c(cnn5Cc5ccccc5)c4)c23)C1 (stereo not drawn) [Example 204, ethyl {4-[(1-benzyl-1H-indazol-5-yl)amino]-5,6,7,8-tetrahydro[1]benzothieno[2,3-d]pyrimidin-7-yl}acetate]
< 5 | < 5 | COCCNCCC1CCc2c(sc3ncnc(Nc4ccc5c(cnn5Cc5ccccc5)c4)c23)C1 (stereo not drawn) [Example 205, N-(1-benzyl-1H-indazol-5-yl)-7-{2-[(2-methoxyethyl)amino]ethyl}-5,6,7,8-tetrahydro[1]benzothieno[2,3-d]pyrimidin-4-amine]
< 5 | < 5 | OCCNCCC1CCc2c(sc3ncnc(Nc4ccc5c(cnn5Cc5ccccc5)c4)c23)C1 (stereo not drawn) [Example 206, 2-[(2-{4-[(1-benzyl-1H-indazol-5-yl)amino]-5,6,7,8-tetrahydro[1]benzothieno[2,3-d]pyrimidin-7-yl}ethyl)amino]ethanol]
< 5 | < 5 | CN(C)C1CCN(CCC2CCc3c(sc4ncnc(Nc5ccc6c(cnn6Cc6ccccc6)c5)c34)C2)C1 (stereo not drawn) [Example 207, N-(1-benzyl-1H-indazol-5-yl)-7-{2-[3-(dimethylamino)pyrrolidin-1-yl]ethyl}-5,6,7,8-tetrahydro[1]benzothieno[2,3-d]pyrimidin-4-amine]
< 5 | < 5 | c1ccc(Cn2ncc3cc(Nc4ncnc5sc6c(c45)CCC(CCN4CCCC4)C6)ccc32)cc1 (stereo not drawn) [Example 208, N-(1-benzyl-1H-indazol-5-yl)-7-(2-pyrrolidin-1-ylethyl)-5,6,7,8-tetrahydro[1]benzothieno[2,3-d]pyrimidin-4-amine]
< 5 | < 5 | c1ccc(Cn2ncc3cc(Nc4ncnc5sc6c(c45)CCC(CCNCCN4CCOCC4)C6)ccc32)cc1 (stereo not drawn) [Example 209, N-(1-benzyl-1H-indazol-5-yl)-7-{2-[(2-morpholin-4-ylethyl)amino]ethyl}-5,6,7,8-tetrahydro[1]benzothieno[2,3-d]pyrimidin-4-amine]
< 5 | < 5 | CS(=O)(=O)CCNCCC1CCc2c(sc3ncnc(Nc4ccc5c(cnn5Cc5ccccc5)c4)c23)C1 (stereo not drawn) [Example 210, N-(1-benzyl-1H-indazol-5-yl)-7-(2-{[2-(methylsulfonyl)ethyl]amino}ethyl)-5,6,7,8-tetrahydro[1]benzothieno[2,3-d]pyrimidin-4-amine]
< 5 | < 5 | c1ccc(Cn2ncc3cc(Nc4ncnc5sc6c(c45)CCC(CCNCCN4CCCC4)C6)ccc32)cc1 (stereo not drawn) [Example 211, N-(1-benzyl-1H-indazol-5-yl)-7-{2-[(2-pyrrolidin-1-ylethyl)amino]ethyl}-5,6,7,8-tetrahydro[1]benzothieno[2,3-d]pyrimidin-4-amine]

From US7238701B2, “Substituted tetrahydrobenzothienopyrimidinamine compounds useful for treating hyper-proliferative disorders” (Bayer Pharmaceuticals Corporation, priority 2003, dated 2007)
